According to patent US10463709B2, “Short synthetic peptide for treating diseases and/or conditions related to angiogenesis” (MacKay Memorial Hospital, priority 2015, dated 2019):
Ends that are not written are not given here.

Key:
[1] = tested on: STZ-induced diabetic mice; assay: Vascular abnormalities in the retina of diabetic mice; assay type: in vivo
Description: Diabetic mice were generated by a single intraperitoneal injection of streptozotocin (STZ) (150 mg/kg body weight). STZ was freshly prepared in 0.1 M citrate buffer (pH 4.5). After injection, mice were supplied with 10% sucrose overnight to prevent sudden hypoglycemic shock. After 1 week, mice with non-fasting blood glucose levels >500 mg/dl were defined as diabetic and used for the experiments. DMSO Vehicle or the present synthetic peptide (10 mg/kg; n≥3 per peptide) were administered by intraperitoneal injections twice a day. After treatment for 24 h, mice were intraperitoneal injected with 100 mg/kg of BSA-FITC for further 30 min.
To determine vascular lesions (hemorrhaging areas) in retina, the animals were euthanized by CO2 inhalation, and the eyes were enucleated and fixed by 2% paraformaldehyde for 2 hr and flat-mounted onto glass slides to obtain optical sections by an epifluorescence microscopy. Vascular lesions in the retina was scored in all four retinal quadrants of flat mounts by using a 20× objective. Six microscopic fields were sampled in each quadrant in both the central and peripheral retina, and data were presented as the average number of lesions/retina.
Vascular FITC-BSA leakage was determined by a fluorescence spectrofluorometer based on standard curves of FITC-BSA at excitation and emission wavelengths of 488 and 535 nm, respectively, and then normalized to a non-injected control retina. For this analysis, retinas were dissected from treated and untreated diabetic mice after BSA-FITC injections, and each was solubilized in 300 μL ice-cold PBS.
Diabetic retinopathy is characterized by blood-retinal barrier (BRB) breakdown and neurotoxicity. To evaluate the possible beneficial effect of the present synthetic peptides on diabetic retinopathy, STZ-induced diabetic mice were intraperitoneally injected with 7-mer peptide, DMSO vehicle or the control peptide (SEQ ID NO: 22). The retinal vascular abnormality was then monitored by detecting the extravasation of BSA-fluorescein. Results are depicted in FIG. 11.

[2] = tested on: human uterine sarcoma cells (MES-SA/Dx5); assay: Tumorigenicity assay, xenografted human uterine sarcoma; assay type: in vivo, nude mice; details: 10 mg/kg intraperitoneal every 2 days for 10 days
Description: MES-SA/Dx5 cells (5×10^6 cells in 0.1 ml) were implanted by subcutaneous injections in the right flank region of female nude mice (n=24, each animal weighted about 20 g before the assay began). The experiments were approved by the Mackay Memorial Hospital Review Board for animal investigation. Treatment was initiated in animals when the tumor volume was above 80 mm^3. Vehicle DMSO, the present synthetic peptide or the control peptide (10 mg/kg) was administered by intraperitoneal injections every 2 days. Tumor progression was monitored for 10 days; size of the tumor was measured every 3 to 5 days with a caliper and the volume was calculated using the following formula: ½×length×width^2.
To this purpose, human uterine sarcoma cells (MES-SA/Dx5) were implanted in nude mice to induce tumor formation, and when the volume of each tumor reached 80 mm^3, animals were then treated with vehicle alone, or the 7-mer peptide at the dose of 10 mg/kg, every 2 days for 10 days. Results are depicted in FIG. 9.

[3] = tested on: laser-induced wet AMD mouse model; assay: Laser induced choroidal neovascularization (CNV), mouse; assay type: in vivo, C57BL/6 mice; details: 10 mg/kg intraperitoneal twice a day for 10 days; vs vehicle
Description: The 8-week-old female C57BL/6 mice were anaesthetized by injecting intraperitoneally a mixture of zoletil (6 mg/kg) and xylazine (3 mg/kg). The retina was viewed through a slit lamp microscope, and the optic nerve head was placed in the center of the microscope field. Both eyes received 3 or 4 laser burns around the optic nerve head using the diode laser (lesion diameter 50 μm; duration 100 ms; energy 250 mW). The formation of a blister indicates rupture of the Bruch's membrane after laser application. DMSO Vehicle or 7-mer (10 mg/kg; n≥10 per peptide) were administered by intraperitoneal injections twice a day for 10 days. Fluorescein fundus images were taken about 5 minutes after intraperitoneal injection of 0.1 mL of 100 mg/ml Fluorescein (10% w/v). During this period, the size of fluorescein leakage spots was relatively stable. The leakage of each CNV lesion was graded by a retina specialist according to the method described by Sheets et al. (Molecular Vision 2010; 16:320-329). […]
Wet type age-related macular degeneration (AMD) is characterized by extensive growth of new vessels in retina. […] Newly formed microvessels with clear fluorescein leakage in retina were assessed by fundus fluorescein angiography 10 days post laser treatment, and results are provided in the photographs of FIG. 13.

NH2-Asp-Leu-Tyr-Arg-Val-Arg-Ser-COOH (DLYRVRS; not fully specified (N-terminus, C-terminus); printed as NH2-Asp-Leu-Tyr-Arg-Val-Arg-Ser-COOH) [7-mer]
extravasation of FITC-BSA [1]: may significantly prevent | number of vascular lesions in retina ([1]; 10 mg/kg intraperitoneal twice a day, 24 h): 1.8±0.54 | hemorrhage in the retinal parenchyma ([1]; intraperitoneal): successfully blocked | Fluorescence Intensity (Fold) ([1]; leaked FITC-BSA in entire retina, vs vehicle): 0.29 ± 0.076 Fold | tumor volume [2]: 125±15.4 mm^3 | CNV lesion grades, severity distribution [3]: lower severity distribution of CNV
